Nine compounds from patent US20110178104A1, “Anti-Heparin Compounds” (POLYMEDIX INC., priority 2010, published 2011) can be followed below.

What is called EC50 is the concentration that produces a half-maximal response.

The nature of data set [1]: Cytotoxicity colorimetric assay, HepG2. Type of data set: cell-based, human. The conditions noted are these: human, HepG2 cells, one hour in serum-free media. The procedure, abridged:
(§1)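 HepG2 cells (3×10^4/well, MEM + 10% FBS) and NIH/3T3 cells (2×10^4/well, DMEM + 10% BCS) were exposed to compound for 1 h in serum-free medium. Viability read by tetrazolium-to-formazan bioreduction after return to serum medium; EC50 from a four-parameter logistic fit.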

A short description of data set [2]: Cytotoxicity colorimetric assay, NIH/3T3. Type of data set: cell-based, mouse. The conditions noted are these: mouse, NIH/3T3 cells, one hour in serum-free media. The procedure, abridged:
as §1

The test system of a further data set is Unfractionated heparin. Briefly: aPTT clotting assay, UFH 0.4 U/mL in plasma (Example 10). Type of data set: biochemical. The settings on record: unfractionated heparin 0.4 U/mL in plasma; aPTT clotting. As to the method: aPTT clotting Assay: Unfractionated heparin was mixed with plasma at a final concentration of 0.4 U/mL (or concentration which increases aPTT time to between 120 and 300 seconds). […] The ACL Elite Hemostasis analyzer (Beckman Coulter™) was used to add aPTT reagent (HemosIL SynthASil) to supplemented plasma. Clotting was initiated by addition of CaCl2 and time to clot was recorded.

For a further data set, the system named is blood pressure. Briefly: Hemodynamic responses in the anesthetized rat. Type of data set: in vivo. The conditions noted are these: anesthetized rat, 8 or 16 mg/kg 10 minute IV infusion after heparin 50 U/kg. From the text:
As a key safety issue for cationic compounds is reduction in blood pressure shortly after administration. To address this hemodynamic issue, a medicinal chemistry strategy with literature precedence of introducing carboxylic acid functionality was applied to the salicylamide series of compounds. […] Surgically prepared animals were purchased from Charles River Laboratories, Raleigh, N.C. Animals were anesthetized on the day of experiment with isoflurane (1.8-4%). Blood pressure and heart rate data were collected on a Grass Polygraph recorder. The test articles, vehicle or protamine dosing preparations were administered once to each rat by a 10 minute intravenous infusion three minutes following a single intravenous injection of heparin (50 U/kg). Each animal received a dose volume of 2.0 mL/kg. Blood pressure was recorded prior to treatment for approximately 1 minute and immediately following heparin, immediately following vehicle, test articles or protamine and at 5, 15, 30, and 60 minutes following dosing. The doses of test agent were either 8 mg/kg or 16 mg/kg. The differences in hemodynamic effect at 16 mg/kg were especially profound (FIG. 5).

A further data set has as its system enoxaparin. Briefly: FXa amidolytic assay (Example 10), enoxaparin. The conditions noted are these: read-out: Enox FXa EC50; enoxaparin 0.1 ug/ml; human antithrombin, bovine Factor Xa.
The subject of another data set is tinzaparin. The data set can be described thus: FXa amidolytic assay (Example 10), tinzaparin. The conditions noted are these: read-out: Tinzap FXa EC50; tinzaparin 0.1 ug/ml; human antithrombin, bovine Factor Xa.
For a further data set, the system named is fondaparinux. Briefly: FXa amidolytic assay (Example 10), fondaparinux. The settings on record: read-out: Fondap FXa EC50; fondaparinux 0.02 μg/mL; human antithrombin, bovine Factor Xa.
The nature of the next data set: in vitro. Type of data set: cell-based, human. The settings on record: human, pH 7.4. In a few lines:
(§2)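 Test agent was serially diluted two-fold over 0.48–1000 µg/ml and incubated for 1 h at 37 °C with shaking, using erythrocytes from pooled human blood diluted in Tris-buffered saline pH 7.4 (0.22% stock). Hemolysis was measured as supernatant absorbance at 405 nm. A four-parameter logistic equation gave EC50, and melittin served as the positive control.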

Data set [3] relates to isolated human erythrocytes. Briefly: cells. Type of data set: cell-based. The settings on record: Homo sapiens, Erythrocyte, 1 h, human RBC, 1 hour at 37° C.; read-out: Hemolysis EC50. In a few lines:
as §2

Another data set relates to UFH. The data set can be described thus: FXa amidolytic assay (Example 10), UFH. The settings on record: read-out: Heparin FXa uM EC50; UFH 0.03 units/mL; human antithrombin, bovine Factor Xa.

Converted amounts (≈) assume the structure as drawn. “And” between values parts separate entries of the source, which are not always exact repeats. Equal entries are not always repeated.

Method for enoxaparin: (§3) Two μl of test agent are added (range between 0.01 and 23 ug/ml) and incubated for 5 minutes at 23° C. Bovine Factor Xa was added to a final concentration of 0.636 nkat/mL and incubated for a further 10 minutes at 23° C.
Method for fondaparinux: as §3
Method for tinzaparin: as §3

As for `COc1ccc(NC(=O)[C@H](CCCCN)NC(=O)c2cc(NC(=O)[C@H](CCCCN)NC(=O)c3cc(NC(=O)[C@H](CCCCN)NC(=O)c4cc(NC(=O)[C@@H](N)CCCCN)ccc4OC)ccc3OC)ccc2OC)cc1C(=O)NCCC(=O)O` [Compound 261], the EC50 at 1 h in [1] and in [2] was above 1000 µg/mL each time. The half-maximal effective concentration (EC50) in the data set on Unfractionated heparin was 1530 nM and 2150 nM; in the data set with enoxaparin it was 344 nM and 294 nM; in the data set with tinzaparin, 232 nM and 214 nM; with fondaparinux it was 5980 nM and 6260 nM. Moreover, the hemodynamic response profile result with blood pressure is recorded as “did not show an improved hemodynamic effect profile”.

In the case of `COc1ccc(NC(=O)[C@H](CCCNC(=N)N)NC(=O)c2cc(NC(=O)[C@H](CCCNC(=N)N)NC(=O)c3cc(NC(=O)[C@H](CCCNC(=N)N)NC(=O)c4cc(NC(=O)[C@@H](N)CCCNC(=N)N)ccc4OC)ccc3OC)ccc2OC)cc1C(=O)NCC(=O)O` [Compound 284], the hemolysis at 1 h in “in vitro” came to 50%. Also, the half-maximal effective concentration (EC50) in [3] was 1000 µg/mL (≈ 771 µM); in the data set with Unfractionated heparin, 1560 nM; with enoxaparin, 144 nM; with tinzaparin it was 138 nM; with fondaparinux, 390 nM.

For `COc1ccc(NC(=O)[C@H](CCCNC(=N)N)NC(=O)c2cc(NC(=O)[C@H](CCCNC(=N)N)NC(=O)c3cc(NC(=O)[C@H](CCCNC(=N)N)NC(=O)c4cc(NC(C)=O)ccc4OC)ccc3OC)ccc2OCC(=O)O)cc1C(=O)N[C@@H](Cc1c[nH]c2ccccc12)C(N)=O` [Compound 312], the hemolysis at 1 h in “in vitro” worked out at 25%. Besides, the concentration giving a half-maximal response (EC50) in data set [3] is 1000 µg/mL (≈ 738 µM); in the data set with Unfractionated heparin, above 10000 nM; in the data set on UFH, 0.295 µM; in the data set with enoxaparin, 152 nM; with tinzaparin, 169 nM; with fondaparinux, 120 nM.

In turn, `COc1ccc(NC(=O)[C@H](CCCNC(=N)N)NC(=O)c2cc(NC(=O)[C@H](CCCNC(=N)N)NC(=O)c3cc(NC(=O)[C@H](CCCNC(=N)N)NC(=O)c4cc(NC(=O)[C@@H](N)CCCNC(=N)N)ccc4OC)ccc3OCC(=O)O)ccc2OC)cc1C(=O)N[C@@H](Cc1c[nH]c2ccccc12)C(N)=O` [Compound 313] displayed a hemolysis at 1 h in the data set “in vitro” of 20%. Also, the EC50 is around 100 µg/mL (≈ 68.1 µM) in [3]; 3810 nM in the data set with Unfractionated heparin; 0.196 µM in the data set on UFH; 107 nM in the data set with enoxaparin; 115 nM with tinzaparin; 117 nM with fondaparinux.

In “in vitro”, `COc1ccc(NC(=O)[C@H](CCCNC(=N)N)NC(=O)c2cc(NC(=O)[C@H](CCCNC(=N)N)NC(=O)c3cc(NC(=O)[C@H](CCCNC(=N)N)NC(=O)c4cc(NC(C)=O)ccc4OC)ccc3OCC(=O)O)ccc2OC)cc1C(=O)N[C@@H](Cc1c[nH]c2ccccc12)C(N)=O` [Compound 314] returned a hemolysis at 1 h of 25%. Besides, the EC50 in data set [3] was 1000 µg/mL (≈ 738 µM); in the data set on Unfractionated heparin, above 10000 nM; in the data set on UFH, 0.295 µM; with enoxaparin, 208 nM; in the data set on tinzaparin it was 199 nM; in the data set on fondaparinux it was 265 nM.

Take `COc1ccc(NC(=O)[C@@H](CCCNC(=N)N)NC(=O)c2cc(NC(=O)[C@@H](CCCNC(=N)N)NC(=O)c3cc(NC(=O)[C@@H](CCCNC(=N)N)NC(=O)c4cc(NC(=O)[C@H](N)CCC(=O)O)ccc4OC)ccc3OC)ccc2OC)cc1C(N)=O` [Compound 322]: in the data set “in vitro”, the hemolysis at 1 h turned out to be 50%. Further, the EC50 worked out at 1000 µg/mL (≈ 826 µM) in [3]; 2110 nM with Unfractionated heparin; 195 nM in the data set with enoxaparin; 158 nM in the data set on tinzaparin; 417 nM with fondaparinux.

On to `COc1ccc(NC(=O)[C@@H](CCCNC(=N)N)NC(=O)c2cc(NC(=O)[C@@H](CCCNC(=N)N)NC(=O)c3cc(NC(=O)[C@@H](CCCNC(=N)N)NC(=O)c4cc(NC(=O)[C@H](N)Cc5c[nH]c6ccccc56)ccc4OC)ccc3OC)ccc2OCC(=O)O)cc1C(N)=O` [Compound 329], for which the hemolysis at 1 h in “in vitro” was found to be 50%. For the same compound, the half-maximal effective concentration (EC50) in data set [3] was 18 µg/mL (≈ 13.7 µM); in the data set with Unfractionated heparin it was 7910 nM; in the data set with enoxaparin it was 202 nM; in the data set with tinzaparin, 203 nM; in the data set with fondaparinux, 371 nM.

`COc1ccc(NC(=O)[C@H](CCCCN)NC(=O)c2cc(NC(=O)[C@H](CCCCN)NC(=O)c3cc(NC(=O)[C@H](CCCCN)NC(=O)c4cc(NC(=O)[C@@H](N)Cc5c[nH]c6ccccc56)ccc4OC)ccc3OC)ccc2OC)cc1C(=O)N[C@@H](Cc1c[nH]c2ccccc12)C(=O)O` [Compound 330]: the hemolysis at 1 h in “in vitro” stood at 75%. Besides, the EC50 was 5.4 µg/mL (≈ 3.94 µM) in [3]; above 10000 nM with Unfractionated heparin; 169 nM in the data set on enoxaparin; 182 nM in the data set on tinzaparin; 218 nM in the data set with fondaparinux.

In the case of `COc1ccc(NC(=O)[C@@H](CCCNC(=N)N)NC(=O)c2cc(NC(=O)[C@@H](CCCNC(=N)N)NC(=O)c3cc(NC(=O)[C@@H](CCCNC(=N)N)NC(=O)c4cc(NC(=O)[C@H](N)Cc5c[nH]c6ccccc56)ccc4OC)ccc3OC)ccc2OC)cc1C(=O)N[C@H](Cc1c[nH]c2ccccc12)C(=O)O` [Compound 331], in “in vitro”, the hemolysis at 1 h worked out at 50%. Besides, the EC50 was around 100 µg/mL (≈ 68.7 µM) in data set [3]; above 10000 nM with Unfractionated heparin; 155 nM in the data set on enoxaparin; 184 nM in the data set with tinzaparin; 161 nM with fondaparinux.
